Data reported in patent publication US20120329770A1, “CEPHALOSPORIN DERIVATIVES USEFUL AS BETA-LACTAMASE INHIBITORS AND COMPOSITIONS AND METHODS OF USE THEREOF” (priority 2010, published 2012).

Legend:
[1] = tested on: Stenotrophomonas maltophilia IS 5568; assay: Antimicrobial MIC / checkerboard assay for synergy with meropenem; type: cell-based; settings: S. maltophilia IS 5568; meropenem + compound, checkerboard
Description: (§1) Assays were conducted as described by Weigand et al. (Weigand, I.; Hilpert, K.; Hancock, R. E. Nat. Protocols 2008, 3, 163-175).
(§2) To determine the lowest concentration of an antimicrobial agent that inhibits visible growth of a microorganism, 50 μL of compound solution and 50 μL of buffer solution were added to each well at the desired concentration(s) (i.e. 4×the final concentration) as well as a zero control. Stock solutions of 10 mg/mL, were prepared in DMSO, followed by two-fold serial dilutions in Müeller-Hinton media and 100 μL of bacteria (ca. 5×10^5 CFU/mL) was added to each well. Plate counts were performed on the control wells to determine bacterial innoculum level. The innoculum was prepared by taking an overnight culture in Müeller-Hinton media and diluting to McFarland's 0.5 standard, and diluting a further 1:100 prior to addition to the plate. Lanes with no bacteria added served as sterility controls and lanes with no compound served as growth controls. Organisms were allowed to grow overnight at 37° C. in a humid environment and the plates were monitored at 625 nm for growth. MIC was determined to be the last well with no growth.
(§3) In the checkerboard assay one compound is serially diluted along the ordinate, and the second compound is serially diluted along the abscissa. […] A 50 μL aliquot of the compound was added to each well at the desired concentration(s) (i.e. 4×the final concentration) as well as a zero control. Stock solutions of 10 mg/mL of compound were prepared in DMSO, followed by two-fold serial dilutions in Müeller-Hinton media. Finally, 100 μL of bacteria (ca. 5×10^5 CFU/mL) was added to each well. Plate counts were performed on the control wells. Innoculum was prepared by taking an overnight culture in Müeller-Hinton media and diluting to McFarland's 0.5 standard, and diluting a further 1:100 prior to addition to the plate. […] The final volume in each well was 200 μL. The plates were allowed to grow overnight at 37° C. in a humid environment and were monitored at 625 nm for growth. […] Sterility controls and growth controls were included on each plate. The fractional inhibitory concentration (FIC) was determined as follows:
(§4) Results were interpreted in the following way: Synergistic if FIC≦0.5; Additive if […]; Indifferent if […]; Antagonistic if FIC≧2.0.

[2] = tested on: Pseudomonas aeruginosa IS 5563; assay: as above; type: cell-based; settings: P. aeruginosa IS 5563; meropenem + compound, checkerboard
Description: as §1, §2, §3, §4

[3] = tested on: Pseudomonas aeruginosa C-10; assay: as above; type: cell-based; settings: P. aeruginosa C-10; meropenem + compound, checkerboard
Description: as §1, §2
(§5) In the checkerboard assay one compound is serially diluted along the ordinate, and the second compound is serially diluted along the abscissa. […] A 50 μL aliquot of the compound was added to each well at the desired concentration(s) (i.e. 4×the final concentration) as well as a zero control. Stock solutions of 10 mg/mL of compound were prepared in DMSO, followed by two-fold serial dilutions in Müeller-Hinton media. Finally, 100 μL of bacteria (ca. 5×10^5 CFU/mL) was added to each well. Plate counts were performed on the control wells. Innoculum was prepared by taking an overnight culture in Müeller-Hinton media and diluting to McFarland's 0.5 standard, and diluting a further 1:100 prior to addition to the plate. Lanes with no bacteria added served as sterility controls and lanes with no meropenem or compound served as growth controls. The final volume in each well was 200 μL. The plates were allowed to grow overnight at 37° C. in a humid environment and were monitored at 625 nm for growth. […] Sterility controls and growth controls were included on each plate. The fractional inhibitory concentration (FIC) was determined as follows:
as §4

[4] = tested on: Pseudomonas aeruginosa IS 6225; assay: as above; type: cell-based; settings: P. aeruginosa IS 6225, meropenem + compound
Description: as §1, §2, §5, §4

[5] = tested on: Chryseobacterium meningosepticum IS 5824; assay: as above; type: cell-based; settings: C. meningosepticum IS 5824; meropenem + compound, checkerboard
Description: as §1, §2, §5, §4

[6] = tested on: Stenotrophomonas maltophilia IS 6069; assay: as above; type: cell-based; settings: S. maltophilia IS 6069, meropenem + compound
Description: as §1, §2, §5, §4

[7] = tested on: Stenotrophomonas maltophilia IS 6081; assay: as above; type: cell-based; settings: S. maltophilia IS 6081, meropenem + compound
Description: as §1, §2, §5, §4

[8] = target: T1, IMP-1 (Serratia marcescens, UniProt P52699); assay: Sensitivity of IMP-1 to proteolysis by trypsin after incubation with inhibitor; type: biochemical; settings: incubation of IMP-1 with inhibitor
T1 construct: made in house; host or cells: Escherichia coli BL21(DE3) carrying pCIP4

[9] = tested on: β-lactamases; assay: β-Lactamase inhibition, result in words; type: biochemical
Text: In preferred embodiments, the compounds incorporate a good leaving group at the C3′ carbon that can be readily expelled as an anion. In some embodiments, the leaving group is a C3′-benzoylthio group, which may be substituted or unsubstituted, according to the definitions provided above for substituted or unsubstituted.
This effect correlates with the expected better leaving group ability of the benzoylthio group in the hydrolysis product versus the benzoate group in the comparative compound.

[10] = target: class D β-lactamase OXA-45 (Pseudomonas aeruginosa, UniProt Q7WZC7); assay: Inhibition of β-lactamases, nitrocefin hydrolysis; type: biochemical
Description: OXA-45 β-lactamase was purified in the laboratory of Prof. T. Walsh (University of Bristol, UK) according to the method published (Toleman, M. A.; Rolston, K.; Jones, R. N.; Walsh, T. R. Antimicrob. Agents Chemother. 2003, 47, 2859-2863) and provided to this laboratory as a kind gift.
(§6) Assay conditions for IC50 determinations involved enzyme concentrations ranging between 2 and 6 nM. The concentration used for the nitrocefin substrate was 100 μM. Assays with OXA-10 and OXA-45 were conducted at pH 7.0 with 100 mM sodium phosphate buffer containing 25 mM sodium bicarbonate. Assays with KPC-2 and GC1 were performed at pH 7.0 in 50 mM HEPES buffer and assays with IMP-1 and VIM-2 were performed in the same buffer with the addition of 500 mM NaCl and 1 μM ZnSO4. BSA was used with all enzymes (except OXA-10 and KPC-2) at concentrations of 0.5-1.0 μg/mL.
(§7) Inhibitors were pre-incubated for 10 minutes at room temperature with enzyme assay solutions prior to the addition of the nitrocefin. These compounds were dissolved in DMSO and prepared at various concentrations such that the final concentration of DMSO was 1% during the pre-incubation. The reaction was initiated by the addition of the pre-incubated enzyme-cyclobutanone solution (90 μL) to a solution of nitrocefin in buffer (10 μL). Enzymatic activity was determined using the initial rate of increase in absorbance at 482 nm

[11] = target: class B β-lactamase NDM-1 (Klebsiella pneumoniae, UniProt C7C422); assay: Inhibition of β-lactamases, nitrocefin hydrolysis; type: biochemical; settings: 15 μM nitrocefin
[12] = target: T2, class D β-lactamase OXA-10 (Pseudomonas aeruginosa, UniProt P14489); assay: Inhibition of β-lactamases, nitrocefin hydrolysis; type: biochemical
T2 construct: indicating a post-translational deletion of a 20 amino acid signal peptide; made in house; host or cells: Escherichia coli BL21 (DE3), pET24a-blaOXA-10, purified from culture supernatant
Text: OXA-10 β-lactamase was expressed and purified using a modified protocol of that reported by Golemi et al. (J. Am. Chem. Soc. 2000, 122, 6132-6133). The pET24a plasmid with the blaOXA-10 gene insert, a kind gift from Prof. S. Mobashery (Notre Dame University), was transformed into Escherichia coli BL21 (DE3) and induced with IPTG. Purification of the enzyme was achieved by the addition of ammonium sulfate to the induced culture supernatant. The protein precipitate collected (50-70% ammonium sulfate saturation) was dissolved and dialyzed against 10 mM Tris.SO4 buffer, pH 7.5, and further purified with a DE52 cellulose column (Whatman, UK) equilibrated with the same buffer. The material bound to the column was washed with 10 mM Tris.SO4 buffer, pH 7.5, followed by an elution with a K2SO4 gradient (0-100 mM). Protein fractions containing nitrocefin-hydrolyzing activity were concentrated and purity analyzed by SDS-PAGE. A molecular weight of 27,490 Da for OXA-10 was determined by ESI MS, indicating a post-translational deletion of a 20 amino acid signal peptide.
(§8) Assay conditions for IC50 determinations involved enzyme concentrations ranging between 2 and 6 nM. […]
(§9) Inhibitors were pre-incubated for 10 minutes at room temperature with enzyme assay solutions prior to the addition of the nitrocefin. […] Enzymatic activity was determined using the initial rate of increase in absorbance at 482 nm

[13] = target: T3, VIM-2 metallo-β-lactamase (Pseudomonas aeruginosa, UniProt Q9K2N0); assay: Inhibition of β-lactamases, nitrocefin hydrolysis; type: biochemical; settings: nitrocefin 100 μM, 10 min pre-incubation; read-out: IC50 VIM-2 (Class B)
T3 construct: made in house; host or cells: Escherichia coli BL21 (DE3) pLysS carrying pNOR2001
Description: VIM-2 metallo-β-lactamase was expressed in Escherichia coli BL21 (DE3) pLysS carrying pNOR2001 (a generous gift from P. Nordmann, Université Paris XI, France) and purified as reported by Poirel et al. (Antimicrob. Agents Chemother. 2000, 44, 891-897). The homogeneity and molecular weight of the mature VIM-2 (29.7 kDa) was determined by SDS-PAGE (Laemmli, U. K. Nature 1970, 227, 680-685). Enzyme concentration was determined from the absorbance at 280 nm (εEM=32,000 M^−1 cm^−1).
as §6, §9

[14] = target: T4, class C β-lactamase GC1 (Enterobacter cloacae, UniProt Q59401); assay: Inhibition of β-lactamases, nitrocefin hydrolysis; type: biochemical; settings: nitrocefin 100 μM, 10 min pre-incubation
T4 construct: made in house; host or cells: Escherichia coli AS226-51 harbouring pCS100
Description: GC1 β-lactamase was purified from Escherichia coli AS226-51 harbouring pCS100, which was a generous gift from Prof. M. Nukaga (Josai International University, Japan). The cell culture was harvested and subjected to a stringent periplasmic lysis protocol according to Crichlow et al. (Biochemistry 1999, 38, 10256-10261.). Purification proceeded similarly to Nukaga et al. (J. Biol. Chem. 2004, 279, 9344-9352.) with cation exchange chromatography (CM Sephadex C-50) equilibrated with 10 mM sodium phosphate buffer (pH 6), followed by elution with a stepwise gradient of increasing NaCl concentration. Fractions containing β-lactamase activity were then applied to a phenylboronate column (MoBiTec, Germany), equilibrated with 20 mM triethanolamine.HCl, pH 7.0, 0.5 M NaCl. The column was washed with the same buffer and then eluted with sterile 0.5 M borate buffer, pH 7.0, 0.5 M NaCl. Active fractions eluted from the phenylboronate column were analyzed for purity via SDS-PAGE, pooled, and concentrated before buffer exchange to 100 mM sodium phosphate, pH 7.0.
as §8, §9

[15] = target: T5, IMP-1 metallo-β-lactamase (Serratia marcescens, UniProt P52699); assay: Inhibition of β-lactamases, nitrocefin hydrolysis; type: biochemical
T5 construct: made in house; host or cells: Escherichia coli BL21(DE3) carrying pCIP4
Text: IMP-1 metallo-β-lactamase was expressed in Esherichia coli BL21(DE3) carrying pCIP4 and purified as reported by Laraki et al. (Antimicrob. Agents Chemother. 1999, 43, 902-906). The homogeneity of the protein was confirmed by SDS-PAGE according to the method of Laemmli (Nature 1970, 227, 680-685). The molecular weight of purified IMP-1, Mr=25,112±0.5 Da, as determined by ESI-MS, was in agreement with that deduced from its amino acid sequence (Laraki et al. Antimicrob. Agents Chemother. 1999, 43, 890-901).
as §6, §7

[16] = target: T6, class A β-lactamase KPC-2 (Klebsiella pneumoniae, UniProt Q9F663); assay: Inhibition of β-lactamases, nitrocefin hydrolysis; type: biochemical; settings: nitrocefin 100 μM, 10 min pre-incubation
T6 construct: calculated for a mature protein with a 24 amino acid signal peptide removed; made in house; host or cells: Escherichia coli DH5α (pBR322-catI-blaKPC-2)
Description: The KPC-2 β-lactamase was purified from Escherichia coli DH5α strain containing the plasmid, pBR322-catI-blaKPC-2, which was kindly provided by Prof. F. van den Akker (Case Western Reserve University). Expression and purification of the enzyme was similar to that reported by Ke et al. (Biochemistry 2007, 46, 5732-5740). A molecular weight of 28,472 Da for the purified KPC-2 was determined by ESI MS. This is in close agreement with that calculated for a mature protein with a 24 amino acid signal peptide removed.
as §6, §9

Sequence of class D β-lactamase OXA-45 (Q7WZC7 entry or part of it): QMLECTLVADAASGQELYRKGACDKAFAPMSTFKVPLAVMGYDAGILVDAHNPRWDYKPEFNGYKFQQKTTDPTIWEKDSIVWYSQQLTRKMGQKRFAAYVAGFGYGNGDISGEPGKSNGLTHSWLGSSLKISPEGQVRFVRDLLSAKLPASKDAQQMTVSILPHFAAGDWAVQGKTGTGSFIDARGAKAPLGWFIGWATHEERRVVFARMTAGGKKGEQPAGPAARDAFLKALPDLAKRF
T2 sequence (P14489 20-266): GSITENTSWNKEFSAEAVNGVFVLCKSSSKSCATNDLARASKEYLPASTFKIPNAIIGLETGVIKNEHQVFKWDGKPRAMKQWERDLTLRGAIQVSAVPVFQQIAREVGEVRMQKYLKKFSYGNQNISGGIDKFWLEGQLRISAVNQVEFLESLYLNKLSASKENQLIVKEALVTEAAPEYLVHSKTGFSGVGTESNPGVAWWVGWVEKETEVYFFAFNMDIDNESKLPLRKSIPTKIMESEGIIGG
T5 sequence (P52699 19-246, looked up): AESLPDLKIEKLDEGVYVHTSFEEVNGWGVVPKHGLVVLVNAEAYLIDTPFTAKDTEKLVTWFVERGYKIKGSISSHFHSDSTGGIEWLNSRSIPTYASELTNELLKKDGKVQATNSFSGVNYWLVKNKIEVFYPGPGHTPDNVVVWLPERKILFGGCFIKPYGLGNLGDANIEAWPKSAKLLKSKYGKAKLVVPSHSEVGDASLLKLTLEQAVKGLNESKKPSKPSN
T1 sequence (P52699 19-246 limits assumed): as the sequence (P52699 19-246, looked up) above
T4 sequence (Q59401 entry or part of it): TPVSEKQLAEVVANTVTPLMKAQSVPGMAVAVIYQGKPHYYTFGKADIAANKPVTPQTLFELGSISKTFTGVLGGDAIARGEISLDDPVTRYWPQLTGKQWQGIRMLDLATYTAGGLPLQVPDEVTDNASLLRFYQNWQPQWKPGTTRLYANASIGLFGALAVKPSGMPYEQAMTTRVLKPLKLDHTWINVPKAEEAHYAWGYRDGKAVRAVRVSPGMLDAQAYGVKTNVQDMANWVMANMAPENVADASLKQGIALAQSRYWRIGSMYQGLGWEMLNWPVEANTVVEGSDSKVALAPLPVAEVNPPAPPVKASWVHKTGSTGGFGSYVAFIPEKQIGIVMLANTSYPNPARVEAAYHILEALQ
T6 sequence (Q9F663 25-293, looked up): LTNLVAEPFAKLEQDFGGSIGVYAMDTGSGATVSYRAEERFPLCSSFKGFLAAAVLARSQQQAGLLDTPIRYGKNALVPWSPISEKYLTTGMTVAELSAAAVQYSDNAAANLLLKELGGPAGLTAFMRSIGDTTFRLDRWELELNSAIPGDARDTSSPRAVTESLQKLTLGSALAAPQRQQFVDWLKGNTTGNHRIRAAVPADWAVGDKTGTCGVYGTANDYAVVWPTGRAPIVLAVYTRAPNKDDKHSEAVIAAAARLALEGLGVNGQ
Sequence of class B β-lactamase NDM-1 (C7C422 29-270, looked up): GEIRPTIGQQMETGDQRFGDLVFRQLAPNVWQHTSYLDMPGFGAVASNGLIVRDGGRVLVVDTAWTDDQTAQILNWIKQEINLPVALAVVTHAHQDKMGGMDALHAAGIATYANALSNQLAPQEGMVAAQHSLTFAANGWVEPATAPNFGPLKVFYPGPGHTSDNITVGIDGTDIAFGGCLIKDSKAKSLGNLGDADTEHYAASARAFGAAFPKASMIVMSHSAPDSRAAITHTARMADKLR

SMILES | FIC [1] | FIC [2] | FIC [3] | FIC [4] | FIC [5] | FIC [6] | FIC [7] | effect on sensitivity of IMP-1 to proteolysis by trypsin [8] | β-lactamase inhibition [9] | IC50 [10] [µM] | IC50 [11] [µM] | IC50 [12] [µM] | IC50 [13] [nM] | IC50 [14] [µM] | IC50 [15] [µM] | IC50 [16] [µM]
O=C(Cc1cccs1)N[C@@H]1C(=O)N2C(C(=O)O)=C(CSC(=O)c3ccccc3)CS[C@H]12 [CMPD A, (6R,7R)-3-(benzoylthiomethyl)-8-oxo-7-(2-(thiophen-2-yl)acetamido)-5-thia-1-azabicyclo[4.2.0]oct-2-ene-2-carboxylic acid] | 0.1328 | 0.1289 | 0.5625 | 0.625 | 0.2539 | 0.25 | 0.2539 | increases the sensitivity of the protein to proteolysis by trypsin | good inhibitor |  |  |  |  |  |  | 
O=C(Cc1cccs1)N[C@@H]1C(=O)N2C(C(=O)O)=C(CSC(=O)c3ccccc3)CS[C@H]12 [drawing 27] |  |  |  |  |  |  |  |  |  | 24 | 33 | 8.1 | 1800 | 140 | 3.1 | 71
